Measured values reported in patent US20150080438A1, “6,7-Dihydro-5H-benzo[7]annulene derivatives, processes for their preparation, pharmaceutical products comprising them and their use for preparing medicaments” (Bayer Intellectual Property GmbH, priority 2011, published 2015).

Target: T1, oestrogen receptor (ER) (Homo sapiens, UniProt P03372)
T1 construct: These MVLN cells express, along with the functional oestrogen receptor (ER), a reporter construct; endogenous in cells; host or cells: MVLN cells (MCF7 derivative with ER-responsive luciferase reporter)
T1 sequence (P03372 1-595): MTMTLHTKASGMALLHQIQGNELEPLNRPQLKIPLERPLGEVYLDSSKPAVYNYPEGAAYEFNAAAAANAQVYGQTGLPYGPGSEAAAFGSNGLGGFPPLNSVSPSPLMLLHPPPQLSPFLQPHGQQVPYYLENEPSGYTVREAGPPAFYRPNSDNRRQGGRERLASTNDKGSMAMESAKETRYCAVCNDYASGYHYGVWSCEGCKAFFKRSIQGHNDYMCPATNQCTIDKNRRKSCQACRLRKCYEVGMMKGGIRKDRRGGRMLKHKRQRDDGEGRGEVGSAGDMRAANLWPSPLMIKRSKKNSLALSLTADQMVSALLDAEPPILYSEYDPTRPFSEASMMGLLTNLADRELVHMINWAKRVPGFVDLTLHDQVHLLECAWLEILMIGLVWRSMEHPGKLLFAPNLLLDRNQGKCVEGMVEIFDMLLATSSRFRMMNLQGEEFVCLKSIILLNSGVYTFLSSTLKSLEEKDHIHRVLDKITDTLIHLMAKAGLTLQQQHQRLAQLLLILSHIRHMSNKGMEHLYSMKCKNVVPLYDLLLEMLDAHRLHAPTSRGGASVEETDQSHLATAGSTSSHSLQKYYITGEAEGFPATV
Experiment: Anti-oestrogenic action in MVLN cells (inhibition of estradiol-induced luciferase, transactivation antagonism)
Format: cell-based
Details: inhibition of estradiol-induced luciferase activity, read-out: Anti-oestrogenic action in vitro: MVLN transactivation antagonism IC50
Description: The anti-oestrogenic action of the claimed pharmacological compounds was investigated in so-called MVLN cells in vitro. MVLN cells are derivatives of the hormone-responsive MCF7 breast cancer cells known by a person skilled in the art. These MVLN cells express, along with the functional oestrogen receptor (ER), a reporter construct, which under ER-activation expresses luciferase. Determination of the activity of the induced luciferase permits a direct conclusion on the oestrogen properties of substances. To investigate the anti-oestrogenic properties of the pharmacological compounds, they were investigated in the presence of oestrogen for their potential for inhibiting the luciferase signal induced by estradiol.
The claimed pharmacological test substances were investigated in MVLN cells for their anti-oestrogenic potential, as described (see Table 2).

IC50 [nM]	SMILES
5	CN(CCCCCCC1=C(c2ccc(F)c(O)c2)CCCc2cc(O)c(F)cc21)CCC[S+]([O-])CCCC(F)(F)C(F)(F)F (racemic) [Example 130, 2-Fluoro-8-(4-fluoro-3-hydroxyphenyl)-9-[6-(methyl{3-[(RS)-(4,4,5,5,5-pentafluoropentyl)sulphinyl]propyl}amino)hexyl]-6,7-dihydro-5H-benzo[7]annulen-3-ol]
2	COCCN(CCCCCCC1=C(c2ccc(F)c(O)c2)CCCc2cc(O)c(F)cc21)CCC[S+]([O-])CCCC(F)(F)C(F)(F)F (racemic) [Example 131, 2-Fluoro-8-(4-fluoro-3-hydroxyphenyl)-9-{6-[(2-methoxyethyl){3-[(RS)-(4,4,5,5,5-pentafluoropentyl)sulphinyl]propyl}amino]hexyl}-6,7-dihydro-5H-benzo[7]annulen-3-ol]
5	COCCCN(CCCCCCC1=C(c2ccc(F)c(O)c2)CCCc2cc(O)c(F)cc21)CCC[S+]([O-])CCCC(F)(F)C(F)(F)F (racemic) [Example 132, 2-Fluoro-8-(4-fluoro-3-hydroxyphenyl)-9-{6-[(3-methoxypropyl){3-[(RS)-(4,4,5,5,5-pentafluoropentyl)sulphinyl]propyl}amino]hexyl}-6,7-dihydro-5H-benzo[7]annulen-3-ol]
5	CN(CCCCCC1=C(c2cccc(O)c2)CCCc2cc(O)ccc21)CCCS(=O)(=O)CCCC(F)(F)C(F)(F)F [Example 5, 8-(3-Hydroxyphenyl)-9-[5-(methyl{3-[(4,4,5,5,5-pentafluoropentyl)sulphonyl]propyl}amino)pentyl]-6,7-dihydro-5H-benzo[7]annulen-3-ol]
8	CN(CCCCCC1=C(c2cccc(O)c2)CCCc2cc(O)ccc21)CCCCCS(=O)(=O)CCCC(F)(F)C(F)(F)F [Example 9, 8-(3-Hydroxyphenyl)-9-[5-(methyl{5-[(4,4,5,5,5-pentafluoropentyl)sulphonyl]pentyl}amino)pentyl]-6,7-dihydro-5H-benzo[7]annulen-3-ol]
4	CN(CCCCCCS(=O)(=O)CCCC(F)(F)C(F)(F)F)CCCCCC1=C(c2cccc(O)c2)CCCc2cc(O)ccc21 [Example 11, 8-(3-Hydroxyphenyl)-9-[5-(methyl{6-[(4,4,5,5,5-pentafluoropentyl)sulphonyl]hexyl}amino)pentyl]-6,7-dihydro-5H-benzo[7]annulen-3-ol]
3	CN(CCCCCCC1=C(c2cccc(O)c2)CCCc2cc(O)ccc21)CCCCS(=O)(=O)CCCC(F)(F)C(F)(F)F [Example 15, 8-(3-Hydroxyphenyl)-9-[6-(methyl{4-[(4,4,5,5,5-pentafluoropentyl)sulphonyl]butyl}amino)hexyl]-6,7-dihydro-5H-benzo[7]annulen-3-ol]
4	CN(CCCCCCC1=C(c2cccc(O)c2)CCCc2cc(O)ccc21)CCCCCS(=O)(=O)CCCC(F)(F)C(F)(F)F [Example 17, 8-(3-Hydroxyphenyl)-9-[6-(methyl{5-[(4,4,5,5,5-pentafluoropentyl)sulphonyl]pentyl}amino)hexyl]-6,7-dihydro-5H-benzo[7]annulen-3-ol]
17	CN(CCCCCCC1=C(c2ccc(C#N)cc2)CCCc2cc(O)ccc21)CCCS(=O)(=O)CCCC(F)(F)C(F)(F)F [Example 22, 4-{3-Hydroxy-9-[6-(methyl{3-[(4,4,5,5,5-pentafluoropentyl)sulphonyl]propyl}amino)hexyl]-6,7-dihydro-5H-benzo[7]annulen-8-yl}benzonitrile]
24	CN(CCCCCC1=C(c2ccc(F)c(O)c2)CCCc2cc(O)ccc21)CCCCS(=O)(=O)CCCC(F)(F)C(F)(F)F [Example 25, 8-(4-Fluoro-3-hydroxyphenyl)-9-[5-(methyl{4-[(4,4,5,5,5-pentafluoropentyl)sulphonyl]butyl}amino)pentyl]-6,7-dihydro-5H-benzo[7]annulen-3-ol]
3	CN(CCCCCCC1=C(c2ccc(F)c(O)c2)CCCc2cc(O)ccc21)CCCCS(=O)(=O)CCCC(F)(F)C(F)(F)F [Example 31, 8-(4-Fluoro-3-hydroxyphenyl)-9-[6-(methyl{4-[(4,4,5,5,5-pentafluoropentyl)sulphonyl]butyl}amino)hexyl]-6,7-dihydro-5H-benzo[7]annulen-3-ol]
6	CN(CCCCCCC1=C(c2ccc(F)c(O)c2)CCCc2cc(O)ccc21)CCCCCS(=O)(=O)CCCC(F)(F)C(F)(F)F [Example 33, 8-(4-Fluoro-3-hydroxyphenyl)-9-[6-(methyl{5-[(4,4,5,5,5-pentafluoropentyl)sulphonyl]pentyl}amino)hexyl]-6,7-dihydro-5H-benzo[7]annulen-3-ol]
11	CN(CCCCCCC1=C(c2ccc(F)c(O)c2)CCCc2cc(O)ccc21)CCCCCCS(=O)(=O)CCCC(F)(F)C(F)(F)F [Example 35, 8-(4-Fluoro-3-hydroxyphenyl)-9-[6-(methyl{6-[(4,4,5,5,5-pentafluoropentyl)sulphonyl]hexyl}amino)hexyl]-6,7-dihydro-5H-benzo[7]annulen-3-ol]
3	CN(CCCCCC1=C(c2ccc(O)c(F)c2)CCCc2cc(O)ccc21)CCCSCCCC(F)(F)C(F)(F)F [Example 36, 8-(3-Fluoro-4-hydroxyphenyl)-9-[5-(methyl{3-[(4,4,5,5,5-pentafluoropentyl)sulphanyl]propyl}amino)pentyl]-6,7-dihydro-5H-benzo[7]annulen-3-ol]
146	CN(CCCCCC1=C(c2cccnc2)CCCc2cc(O)ccc21)CCCSCCCC(F)(F)C(F)(F)F [Example 39, 9-[5-(Methyl{3-[(4,4,5,5,5-pentafluoropentyl)sulphanyl]propyl}amino)pentyl]-8-(3-pyridyl)-6,7-dihydro-5H-benzo[7]annulen-3-ol]
110	CN(CCCCCC1=C(c2cccnc2)CCCc2cc(O)ccc21)CCCS(=O)(=O)CCCC(F)(F)C(F)(F)F [Example 41, 9-[5-(Methyl{3-[(4,4,5,5,5-pentafluoropentyl)sulphonyl]propyl}amino)pentyl]-8-(3-pyridyl)-6,7-dihydro-5H-benzo[7]annulen-3-ol]
7	CN(CCCCCCC1=C(c2cccnc2)CCCc2cc(O)ccc21)CCCSCCCC(F)(F)C(F)(F)F [Example 42, 9-[6-(Methyl{3-[(4,4,5,5,5-pentafluoropentyl)sulphanyl]propyl}amino)hexyl]-8-(3-pyridyl)-6,7-dihydro-5H-benzo[7]annulen-3-ol]
65	CN(CCCCCC1=C(c2ccc(S(C)(=O)=O)cc2)CCCc2cc(O)ccc21)CCCSCCCC(F)(F)C(F)(F)F [Example 45, 8-(4-Mesylphenyl)-9-[5-(methyl{3-[(4,4,5,5,5-pentafluoropentyl)sulphanyl]propyl}amino)pentyl]-6,7-dihydro-5H-benzo[7]annulen-3-ol]
34	CN(CCCCCC1=C(c2ccc(S(C)(=O)=O)cc2)CCCc2cc(O)ccc21)CCCS(=O)(=O)CCCC(F)(F)C(F)(F)F [Example 47, 8-(4-Mesylphenyl)-9-[5-(methyl{3-[(4,4,5,5,5-pentafluoropentyl)sulphonyl]propyl}amino)pentyl]-6,7-dihydro-5H-benzo[7]annulen-3-ol]
1	CN(CCCCCCC1=C(c2cccc(O)c2)CCCc2cc(O)ccc21)CCCCS(=O)(=O)CCCC(F)(F)F [Example 52, 8-(3-Hydroxyphenyl)-9-[6-(methyl{4-[(4,4,4-trifluorobutyl)sulphonyl]butyl}amino)hexyl]-6,7-dihydro-5H-benzo[7]annulen-3-ol]
2	CN(CCCCCCC1=C(c2cccc(O)c2)CCCc2cc(O)ccc21)CCCS(=O)(=O)CCC(F)(F)C(F)(F)F [Example 54, 8-(3-Hydroxyphenyl)-9-[6-(methyl{3-[(3,3,4,4,4-pentafluorobutyl)sulphonyl]propyl}amino)hexyl]-6,7-dihydro-5H-benzo[7]annulen-3-ol]
5	CN(CCCCCCC1=C(c2ccccc2)CCCc2cc(O)ccc21)CCCS(=O)(=O)CCCC(F)(F)F [Example 57, 9-[6-(Methyl{3-[(4,4,4-trifluorobutyl)sulphonyl]propyl}amino)hexyl]-8-phenyl-6,7-dihydro-5H-benzo[7]annulen-3-ol]
26	CN(CCCCCCC1=C(c2ccccc2)CCCc2cc(O)ccc21)CCCS(=O)(=O)CCC(F)(F)F [Example 60, 9-[6-(Methyl{3-[(3,3,3-trifluoropropyl)sulphonyl]propyl}amino)hexyl]-8-phenyl-6,7-dihydro-5H-benzo[7]annulen-3-ol]
12	CN(CCCCCCC1=C(c2ccccc2)CCCc2cc(O)ccc21)CCCS(=O)(=O)CCC(F)(F)C(F)(F)F [Example 62, 9-[6-(Methyl{3-[(3,3,4,4,4-pentafluorobutyl)sulphonyl]propyl}amino)hexyl]-8-phenyl-6,7-dihydro-5H-benzo[7]annulen-3-ol]
